Patent US20210196724A1, “BIARYL COMPOSITIONS AND METHODS FOR MODULATING A KINASE CASCADE” (Athenex, Inc., priority 2016, published 2021)

Experiments:
[1] = test system: GL261 glioblastoma cells injected intra-cranially; assay: GL261 murine model of glioblastoma (intra-cranial), survival; format: in vivo, C57BL/6 mice; settings: orally once per day at 1 mg/kg for 45 days
Method: (§1) The anti-tumor activity of Compound 121, as a single agent, was studied in the GL261 murine model of human glioblastoma. Murine GL261 glioblastoma cells were injected intra-cranially into syngeneic, immune-competent hosts (C57BL/6). In order for oral therapeutics to be effective, it is required that the therapeutic be able to cross the blood-brain barrier in order to achieve sufficient levels in the brain to exert an anti-tumor effect. Survival was the major endpoint for the study. The mice either succumbed to the tumor or were euthanized based on severity of tumor-dependent morbidity. Mice that achieved long-term survival (>80 days) were re-challenged with a sub-cutaneous injection of GL261 cells to assess the development of a durable immune response to GL261. Mice that underwent the re-challenge phase were not treated with Compound 121.
GL261 cells (1×10^5 cells) were implanted into the brain of a C57BL/6 host using stereotactice injection. Compound 121 was dosed orally once per day at 1 mg/kg (N=10) for 45 days beginning 3 days post-tumor cell implantation. Compound Y was dosed orally once per day at 5 mg/kg (N=10) for 45 days beginning 3 days post-tumor implantation. A vehicle was administered to a control group of mice (N=10) per the same schedule.
Mice were monitored for signs of tumor dependent morbidity, including head tilt, hunching, ataxia, and limb weakness. Mice were euthanized when cumulative signs of high tumor burden were evident.

U87 cells = assay: MTT cell growth inhibition (GI50), U87; format: cell-based, human; settings: 3 days
Method: The drug concentration required to block net cell growth by 50% relative to a control sample is measured as the GI50. The GI50s for several of the compounds of the application were assayed as described.
MTT assay: U87 and GL261 cells were seeded in 96-well plate (6×10^3 cells in 100 μl of DMEM+10% FBS media per well) and incubated overnight at 37° C. with 5% CO2. All test compounds were diluted (10 point 2-fold serial dilution) in a separate 96-well plate to yield 10× of final concentrations (0.5-256 nM). A volume of 11 μl of 10× dilutions was added to appropriate wells (n=3). To value (reflecting the starting number of cells upon drug treatment) was determined by following steps as described below. After 3 days incubation at 37° C. with 5% CO2, 10 μl of MTT solution (5 mg/ml in PBS) was added to each well and plates were incubated at 37° C. for 3 h to allow MTT to form formazan crystals by reacting with metabolically active cells. 100 μl of 20% SDS was added to each well and plates were incubated overnight at 37° C. with 5% CO2. Afterward, OD570 was measured using microplate reader. The cell growth percentage of control was calculated according to percentage of control=(T−T0)/(C−T0)×100% or OD value of the test well exposure to test drug—OD value at time zero/(OD of the control well without drug treatment−OD value at time zero)×100%. Growth inhibition curves and GI50 were determined using GraphPad Prism 5 software.

[2] = test system: U87-luc human glioblastoma subcutaneous xenograft; assay: U87-luc human glioblastoma subcutaneous xenograft tumor model; format: in vivo, athymic nude mice
From the text: The anti-tumor activity of Compound 121, as a single agent, was studied in a U87-luc human glioblastoma subcutaneous xenograft tumor model. Significant endpoints were used to assess the treatment effects on subcutaneous tumor growth, as determined by tumor growth inhibition.
Human glioblastoma U87 cells (1×10^6 cells) were implanted into the right flank of athymic nude mice via subcutaneous injection. Dosing was initiated when the average tumor size reached 90-100 mm^3, which was designated as Day 1.
Compound 121 was dosed at 5 mg/kg once per day through Days 1-7 and dosed 2.5 mg/kg once per day through Days 15-21. A control group of mice (N=7) was administered a vehicle per the same schedule. Tumor volume was determined every 2 to 3 days via bidimensional caliper measurements. Body weight and general observations were recorded.
The mice were euthanized once the tumor reached 2000 mm^3 in volume.
Tumor growth inhibition (TGI) was calculated with the following formula:
TGI=(1−(mean volume of treated tumors)/(mean volume of control tumors))×100.

[3] = Pharmacokinetic properties after IV and PO administration; format: in vivo
[4] = test system: GL261 cells, sub-cutaneous; assay: Re-challenge of long-term survivors with sub-cutaneous GL261 cells; format: in vivo, C57BL/6 mice; settings: long term survival (LTS) mice after Compound 121 oral therapy, not treated in re-challenge phase
Method: as §1
Re-challenge phase: Mice surviving past 80 days were injected with GL261 cell subcutaneously on Day 93. A control group (naïve C57BL/6 mice, N=5) were also injected with GL261 cells subcutaneously. Tumor volumes were calculated from bidimensional caliper measurements every 3 to 4 days. Further, all mice were administered oral doses of a Bifidobacterium mixture on three separate occasions. The objective of the administration of Bifidobacterium was to transiently modify the intestinal microbiome as a means to influence the immune response to GL261. […]

[5] = Day 12, orally dosed 5 mg/kg once per day Days 1-7
[6] = in vivo, IV Administration (5 mg/kg)

Cc1cc(N2CCOC[C@@H]2C)ccc1-c1ccc(CC(=O)NCc2ccc(F)cc2)nc1 [Compound 121]
Survival compared to vehicle control [1]: significanly extended survival | Survival beyond 80 days (long term survival) ([1]; N=10): 2 of the 10 | GI50 (U87 cells): 5.2 nM | Tumor growth (tumor volumes in individual mice over time) ([2]; 5 mg/kg once per day Days 1-7, 2.5 mg/kg once per day Days 15-21): repressed tumor growth | Mean tumor volume compared to the control group ([2]; Day 12, P<0.05): significantly reduced | % TGI (tumor growth inhibition) [2, 5]: 76.8% | Mean Tumor Volume ± SEM [2, 5]: 442.9 ± 67.2 mm3 | Time to terminal sacrifice (based on tumor volume) compared to control ([2]; P<0.05, 5 mg/kg Days 1-7, 2.5 mg/kg Days 15-21): significantly extended | AUCIV (dose-normalized) ([3]; IV Administration (5 mg/kg)): 575 kg·ng·h/mL/mg | t0.5 ([3]; IV Administration (5 mg/kg)): 0.959 h | F (%) = 100 × AUCpo/AUCIV ([3]; PO 20 mg/kg vs IV 5 mg/kg): 34.8% | AUCPO (dose-normalized) ([3]; PO Administration (20 mg/kg)): 199 kg·ng·h/mL/mg | C0 [3, 6]: 2850 ng/mL | clearance [3, 6]: 29 mL/min/kg | Vd ([3]; in vivo, IV Administration (5 mg/kg), read-out: Vss): 2.24 L/kg | Cmax ([3]; in vivo, PO Administration (20 mg/kg)): 2170 ng/mL | Tumor growth after sub-cutaneous re-challenge with GL261 cells [4]: Tumors failed to grow in both LTS mice
